Laboratory results as given in patent publication US5432179A, “Piperazine derivatives and pharmaceuticals containing the same” (Zeria Pharmaceutical Co., Ltd., priority 1991, dated 1995).

How the values were obtained:
[1] = test system: passive cutaneous anaphylaxis (PCA); experiment: Antiallergic effects: passive cutaneous anaphylaxis (PCA), inhibition of leaked color amount; assay type: in vivo, male SD rat; conditions: rat PCA; oral, 10 mg/4 ml/kg one hour before the administration of antigen
Description: The back of a male SD rat (150-250 g in weight) was shaved in advance. Physiological saline and 0.1 ml of anti DNP-AS (Dinitrophenyl conjugated Ascaris) IgE serum which had been diluted to a suitable concentration with physiological saline were intradermally injected there. Fourty-eight hours after sensitization, the animals were challenged with 1 ml of 0.5% Evans blue physiological saline containing 2.5 mg/ml of DNP-BSA (dinitrophenyl conjugated bovine serum albumin) via the tail vein. Thirty minutes later, they were sacrificed under exsanguination and the dorsal skin was removed and the exuded dye was measured according to the method proposed by Harada et al. [Allergy, 15, 1-7(1966)]. The leaked color amount caused by the passive cutaneous anaphylaxis (PCA) was determined by subtracting the leaked color amount of the site to which physiological saline was administered from that of the PCA site. Each test compound was suspended in 5% gum arabic or 0.5% methylcellulose and the-resulting suspension was orally administered at the rate of 10 mg/4 ml/kg one hour before the administration of antigen. The efficacy of the test compound was evaluated by an ihibition rate (antiallergic effects) of the leaked color amount.

[2] = test system: contraction reaction of the isolated ileum caused by histamine; experiment: Antihistamic effects: inhibition of histamine-induced contraction of isolated guinea pig ileum (Magnus bath); assay type: cell-based, Hartley male guinea pig; conditions: Cavia porcellus, histamine 3×10^-7 mole, test compound for 3 minutes before histamine, 30° C., read-out: antihistamic action (50% inhibition concentration: IC50 value)
Description: From a Hartley male guinea pig (300-600 g in weight), the ileum was isolated. The ileum was attached to a holder under a vesting tension of 0.5 g in a Magnus bath (30° C., under aeration) filled with 10 ml of the Tyrode solution. As a contraction reaction of the isolated ileum caused by histamine (3×10^-7 mole), an isometrical change in muscular tension was measured. The ileum was treated with the test compound for 3 minutes before the addition of histamine to study its effects and then its antihistamic action (50% inhibition concentration: IC50 value) was determined.
Incidentally, the IC50 value of Cetirizine (the compound disclosed in Japanese Patent Laid-Open No. 149282/1982) was determined as a control. Its IC value was 2.40 μM.

IC50 [2] [nM] | Molecule | Antiallergic effects (inhibition rate of the leaked color amount) [1] [%]
– | O=C(Nc1nnn[nH]1)c1ccccc1OCCCN1CCN(C(c2ccccc2)c2ccccc2)CC1 [Example 46, 2-[3-[4-(Diphenylmethyl)-1-piperazinyl]propoxy]-N-1H-tetrazol-5-yl-benzamid] | 59.8
– | 2-[2-[4-[(4-Chlorophenyl)phenylmethyl]-1-piperazinyl]ethoxy]-1-tetrazol-5-ylmethyl [Example 69] | 81.0
– | O=C(Nc1nnn[nH]1)c1ccccc1OCCCN1CCN(C(c2ccccc2)c2ccc(Cl)cc2)CC1 (stereo not drawn) [Example 45, 2-[3-[4-[(4-Chlorophenyl)phenylmethyl]-1-piperazinyl]propoxy]-N-1H-tetrazol-5-yl-benzamide] | 72.4
– | O=C(Nc1nnn[nH]1)c1ccccc1OCCN1CCN(C(c2ccccc2)c2ccc(Cl)cc2)CC1 (stereo not drawn) [Example 41, 2-[2-[4-[(4-Chlorophenyl)phenylmethyl]-1-piperazinyl]ethoxy]-N-1H-tetrazol-5-yl-benzamide] | 52.3
2400 | O=C(O)COCCN1CCN(C(c2ccccc2)c2ccc(Cl)cc2)CC1 (stereo not drawn) [Cetirizine] | –
– | O=C(O)c1ccccc1OCCN1CCN(C(c2ccccc2)c2ccc(Cl)cc2)CC1 (stereo not drawn) [Example 5, 2-[2-[4-[(4-Chlorophenyl)phenylmethyl]-1-piperazinyl]ethoxy]benzoic acid] | 86.4
– | O=C(COCCN1CCN(C(c2ccccc2)c2ccc(Cl)cc2)CC1)Nc1nnn[nH]1 (stereo not drawn) [Example 50, 2-[2-[4-[(4-Chlorophenyl)phenylmethyl]-1-piperazinyl]ethoxy]-N-1H-tetrazol-5-yl-acetamide] | 60.4
– | O=C(O)c1ccccc1OCCN1CCN(C(c2ccccc2)c2ccccc2)CC1 [Example 9, 2-[2-[4-(Diphenylmethyl]-1-piperazinyl]ethoxy]-benzoic acid] | 61.9
– | O=C(Nc1nnn[nH]1)c1ccccc1SCCN1CCN(C(c2ccccc2)c2ccc(Cl)cc2)CC1 (stereo not drawn) [Example 44, 2-[[2-[4-[(4-Chlorophenyl)phenylmethyl]-1-piperazinyl]ethyl]thio]-N-1H-tetrazol-5-yl-benzamide] | 54.7
